{"source": "patent US10294230B2", "about": "“3,3-difluoropiperidine carbamate heterocyclic compounds as NR2B NMDA receptor antagonists” (Rugen Holdings (Cayman) Limited, priority 2015, dated 2019)", "key": {"[1]": {"target": "NR2B (Homo sapiens (Human), UniProt Q05586+Q13224)", "sequence (Q13224 27-1484, species assumed, other chains not shown)": "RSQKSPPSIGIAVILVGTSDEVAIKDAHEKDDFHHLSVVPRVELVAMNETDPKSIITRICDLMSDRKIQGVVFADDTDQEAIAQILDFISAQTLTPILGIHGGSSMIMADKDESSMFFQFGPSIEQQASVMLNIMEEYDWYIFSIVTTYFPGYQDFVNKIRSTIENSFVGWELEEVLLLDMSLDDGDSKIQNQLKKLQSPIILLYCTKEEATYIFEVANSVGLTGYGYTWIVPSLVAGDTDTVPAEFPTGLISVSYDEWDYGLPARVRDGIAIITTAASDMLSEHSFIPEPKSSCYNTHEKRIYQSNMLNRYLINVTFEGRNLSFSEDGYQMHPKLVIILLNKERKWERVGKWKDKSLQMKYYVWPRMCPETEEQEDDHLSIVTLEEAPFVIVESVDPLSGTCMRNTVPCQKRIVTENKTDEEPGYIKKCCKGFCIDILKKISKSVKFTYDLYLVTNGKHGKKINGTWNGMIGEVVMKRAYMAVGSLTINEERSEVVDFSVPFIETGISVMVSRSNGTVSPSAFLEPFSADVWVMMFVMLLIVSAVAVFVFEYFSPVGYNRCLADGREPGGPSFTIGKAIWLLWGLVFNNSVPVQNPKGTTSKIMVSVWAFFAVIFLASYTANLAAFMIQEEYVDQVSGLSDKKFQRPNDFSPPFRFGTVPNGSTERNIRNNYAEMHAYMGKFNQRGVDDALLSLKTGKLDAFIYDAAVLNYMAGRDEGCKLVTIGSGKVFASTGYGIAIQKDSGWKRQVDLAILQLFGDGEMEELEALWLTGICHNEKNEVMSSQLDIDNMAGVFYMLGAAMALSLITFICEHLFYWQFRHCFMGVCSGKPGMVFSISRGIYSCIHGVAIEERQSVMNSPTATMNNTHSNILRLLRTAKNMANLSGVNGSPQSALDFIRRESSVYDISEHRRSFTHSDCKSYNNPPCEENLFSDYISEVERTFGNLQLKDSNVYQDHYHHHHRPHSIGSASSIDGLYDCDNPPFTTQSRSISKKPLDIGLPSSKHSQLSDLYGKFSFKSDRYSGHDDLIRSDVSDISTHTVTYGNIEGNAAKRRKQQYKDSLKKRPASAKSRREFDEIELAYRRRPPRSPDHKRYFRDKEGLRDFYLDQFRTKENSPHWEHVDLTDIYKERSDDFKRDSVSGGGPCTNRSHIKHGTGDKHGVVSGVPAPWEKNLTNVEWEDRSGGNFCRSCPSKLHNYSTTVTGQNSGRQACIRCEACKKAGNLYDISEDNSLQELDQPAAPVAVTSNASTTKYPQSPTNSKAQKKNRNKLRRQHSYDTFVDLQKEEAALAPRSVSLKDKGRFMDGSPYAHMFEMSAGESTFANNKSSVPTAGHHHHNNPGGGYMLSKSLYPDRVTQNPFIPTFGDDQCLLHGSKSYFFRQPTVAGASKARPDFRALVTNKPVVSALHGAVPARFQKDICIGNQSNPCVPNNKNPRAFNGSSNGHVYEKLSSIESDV", "conditions": "cited from earlier work"}, "[2]": {"test_system": "immobility in forced swim test", "assay": "Forced Swim Test (FST) in rats", "format": "in vivo", "source_text": "(§1) The forced swim test (FST) also known at the behavioural despair test was used to evaluate antidepressant activity (Porsolt et al., 1977 Arch. Int. Pharmacodyn. 229: 327-336, Porsolt et al., 1977, Eur. J. Pharmacol. 47:379-391). Mice or rats that are forced to swim in a situation from which they cannot escape, rapidly become immobile. Drugs with antidepressant activity, such as imipramine, reduce the amount of time spent in the immobile state. Therefore, the amount of immobility time during a test conducted after drug administration represents a useful indicator of antidepressant activity (Lucki et al 2001 Psychopharmacology 155:315-322; Porsolt et al., 1977, Nature 266:730-732).\n(§2) Test compound E1-8.2 was administered as the free base.\nMale Wistar rats weighing 197-251 g were used for the rat test. Rats were evaluated according to a two-session procedure with a swimming session of 15 minutes on the first day of the experiment (Session 1) followed 24 hours later by a 5-minute swimming test (Session 2). […] Rats were placed in the water 24 h later for 5 minutes (Session 2) and the duration of immobility was measured.\nAnimals were observed by a blinded observer. […] The amount of time each animal spent in the immobile state (and the latency to the first bout of immobility) was recorded and used for statistical analysis of compound effect. […]"}, "[3]": {"test_system": "immobility in forced swim test", "assay": "Forced Swim Test (FST) in mice", "format": "in vivo", "source_text": "as §1, §2\nMice were evaluated in a single swimming test session of 6 minutes. Mice were placed in a transparent plastic cylinder 24 cm high with a diameter of 13 cm containing 10 cm of water with ambient temperature control generally from 22±2° C. Mice were placed in the water for 6 minutes and the duration of immobility during the last 4 minutes was measured.\nAnimals were observed by a blinded observer. The observer judged the animal to be immobile when it ceased all activity (struggling, swimming, jumping etc.) and floated passively atop the water. The amount of time each animal spent in the immobile state (and the latency to the first bout of immobility) was recorded and used for statistical analysis of compound effect. Group differences were evaluated by student's t-test (reference substance) or one-way ANOVA followed by post-hoc Dunnett's test (test substances). […]\nMale mice (strain NLMN) weighing 25-35 g were used for testing. […] The mice were videotaped for 6 minutes, and the last 4 minutes of video were analyzed by a blinded observer off-line. […] The amount of time each animal spent in the immobile state was recorded and used for statistical analysis of compound effect. Group differences were evaluated by student's t-test or one-way ANOVA followed by post-hoc Dunnett's test. […]"}}}
{"smiles": "Cc1ccc(COC(=O)N2CCC(CNc3ncccn3)C(F)C2)cc1", "note": "(single isomer, unassigned) [3R,4S enantiomer]", "values": [{"measurement": "potency against NR2B", "setting": "[1]", "result": 25.5, "unit": "nM"}]}
{"smiles": "CN(C)CCCN1c2ccccc2CCc2ccccc21", "note": "[imipramine]", "values": [{"measurement": "immobility time, antidepressant activity", "setting": "[2]; 32 mpk i.p. 3 times: 24 h, 4 h and 30 min before Session 2", "result": "expected antidepressant activity"}, {"measurement": "immobility time, antidepressant activity", "setting": "[2]; 64 mpk p.o. 3 times: 24 h, 4 h and 60 min before Session 2", "result": "expected antidepressant activity"}, {"measurement": "immobility time, antidepressant activity", "setting": "[3]; 32 mpk i.p. once 30 min before the test", "result": "expected antidepressant activity"}, {"measurement": "immobility time, antidepressant activity", "setting": "[3]; 64 mpk p.o. once 60 min before the test", "result": "expected antidepressant activity"}, {"measurement": "immobility time, antidepressant activity", "setting": "[3]; 128 mpk p.o. once 60 minutes before the test on Day 7", "result": "expected antidepressant activity"}]}
